Where two headings read alike, the source gives them in different places.
Legend:
[1] = test system: HT-29 (colon cancer cell line); assay: Antiproliferative assay, HT-29; type: cell-based; settings: Homo sapiens, read-out: Antiproliferative Activity IC50 ± SEM HT-29
Protocol: (§1) For ease of manipulation, the average (GI50) versus the four cancer cell lines was used.
(§2) To investigate the antiproliferative potential of 3a–e, 4a–c, and 5a–c, the MTT assay was carried out using various cell lines in accordance with previously reported procedures. See Appendix SA (Supplementary Materials). […]
(§3) ethylenediamine tetra acetic acid (EDTA) was used to passage the cells after every 2-3 days. 96-well flat-bottomed cell culture plates were used to seed the cells at a density of 10^4 cells mL-1. The medium was aspirated from all the wells of culture plates after 24 h followed by the addition of synthesized compounds (in 200 μL medium to yield a final concentration of 0.1% (v/v) dimethylsulfoxide) into individual wells of the plates.
(§4) Four wells were designated to a single compound. The plates were allowed to incubate at 37°C for 96 h. Afterwards, the medium was aspirated and 3-[4,5-dimethylthiazol-2-yl]-2,5-diphenyltetrazolium bromide (MTT) (0.4 mg/mL) in medium was added to each well and subsequently incubated for 3 h. The medium was aspirated and 150 μL dimethyl sulfoxide (DMSO) was added to each well. The plates were vortexed followed by the measurement of absorbance at 540 nm on a microplate reader. The results were presented as inhibition (%) of proliferation in contrast to controls comprising 0.1% 4.2.1.2. Assay for antiproliferative effect
(§5) To explore the antiproliferative potential of compounds propidium iodide fluorescence assay was performed using different cell lines such as Panc-1 (pancreas cancer cell […]
(§6) (epithelial cancer cell line), respectively. To calculate the total nuclear DNA, a fluorescent dye (propidium iodide, PI) is used which can attach to the DNA, thus offering a quick and precise technique. PI cannot pass through the cell membrane and its signal intensity can be considered as directly proportional to quantity of cellular
(§7) DNA. Cells whose cell membranes are damaged or have changed permeability are counted as dead ones. The assay was performed by seeding the cells of different cell lines at a density of 3000-7500 cells/well (in200μl medium) in culture plates followed […]
(§8) The medium was removed; the compounds were added to the plates at 10 μM concentrations (in 0.1% DMSO) in triplicates, followed by incubation for 48h. DMSO (0.1%) was used as control. After incubation, medium was removed followed by the addition of PI (25 μl, 50μg/mL in water/medium) to each well of the plates. At -80 °C, the plates were allowed to freeze for 24 h, followed by thawing at 25 °C. A fluorometer (Polar-Star BMG Tech) was used to record the readings at excitation and emission wavelengths of 530 and 620 nm for each well. The percentage cytotoxicity of compounds was calculated using the following formula:
(§9) Where ATC= Absorbance of treated cells and AC= Absorbance of control. […]
(§10) was used as positive control in the assay. […]

[2] = Cell viability assay (MTT) on normal mammary epithelial cells; type: cell-based; settings: human, MCF-10A normal mammary gland epithelial cells, four days of incubation
Protocol: The viability test was performed on a normal human mammary gland epithelial cell line (MCF-10A). The MTT test was used to assess the viability of compounds 3a–e, 4a–c, and 5a–c.
The MTT assay was used to determine how the synthesized compounds affected the viability of mammary epithelial cells (MCF-10A). See Appendix SA (Supplementary Materials). […]
4.2. Biological evaluation
4.2.1. Cytotoxic activity using MTT Assay and evaluation of IC50
MTT assay was performed to investigate the effect of the synthesized compounds on mammary epithelial cells (MCF-10A). The cells were propagated in medium consisting of Ham's F-12 medium/ Dulbecco's modified Eagle's medium (DMEM) (1:1) supplemented with 10% foetal calf serum, 2 mM glutamine, insulin (10 μg/mL), hydrocortisone (500 ng/mL) and epidermal growth factor (20 ng/mL). Trypsin ethylenediamine tetra acetic acid (EDTA) was used to passage the cells after every 2-3 days. 96-well flat-bottomed cell culture plates were used to seed the cells at a density of 10^4 cells mL-1. The medium was aspirated from all the wells of culture plates after 24 h followed by the addition of synthesized compounds (in 200 μL medium to yield a final concentration of 0.1% (v/v) dimethylsulfoxide) into individual wells of the plates.
as §4, with “The results were presented as inhibition (%) of proliferation in contrast to controls comprising 0.1% 4.2.1.2. Assay for antiproliferative effect” left out

EGFR^T790M [3] = target: T1, EGFR^T790M (Homo sapiens, UniProt P00533, T790M); assay: EGFR^T790M inhibitory assay (HTRF KinEASE-TK); type: biochemical; settings: for IC50: HTRF KinEASE-TK, read-out: EGFR^T790M Inhibition IC50 ± SEM
T1 construct: purchased Carna Bioscience
Protocol: Osimertinib served as the positive control.
EGFRT790M inhibitory assay
The EGFR protein (EGFRT790M) was purchased from Carna Bioscience. The HTRF KinEASE-TK kit (Cat#62TK0PEB) was from Cisbio. All the other chemicals were […]
low volume, black, NBS), using Cisbio HTRF KinEASE -TK kit. The assay buffer contained 50 mM HEPES (Ph 7.0), 0.02% NaN3, 0.01% BSA, 0.1 mM Orthovanadate, […]
EGFR kinases was first incubated with compounds for 2 h respectively, then ATP/Peptide substrate mixture was added to initiate the reaction. After 30 min reaction at room temperature, the detection reagents were added. The TR-FRET signal was measured on PerkinElmer Envision using […]
The data was analyzed using Graph
Pad Prism (Version 6.0) software after three parallel experiments. […]

[4] = test system: Panc-1 (pancreatic cancer cell line); assay: Antiproliferative assay, Panc-1; type: cell-based; settings: Homo sapiens, read-out: Antiproliferative Activity IC50 ± SEM Panc-1
Protocol: as §1, §2, §3, §4, §5, §6, §7, §8, §9, §10

EGFR [5] = target: T2, EGFR (Homo sapiens, UniProt P00533); assay: EGFR-TK inhibitory assay
BRAF^V600E [6] = target: T3, BRAF^V600E (Mus musculus, UniProt P28028, V585E); assay: V600E mutant BRAF kinase assay; type: biochemical; settings: read-out: BRAF^V600E Inhibition IC50 ± SEM
T3 construct: Mouse full-length GST-tagged; GST; purchased Invitrogen PV3849
Protocol: V600E mutant BRAF kinase assay was performed to investigate the activity of […]
Mouse full-length GST-tagged
BRAFV600E (7.5 ng, Invitrogen, PV3849) was pre -incubated with drug (1 µL) and assay dilution buffer (4 µL) for 6 0 min at 25 °C. In assay dilution buffer, a solution (5 µL) containing MgCl2 (30 mM), ATP (200 µM), recombinant human full length (200 ng) […] N-terminal His-tagged MEK1 (Invitrogen) was added to start the assay, after incubation for 25 min at 25 °C. The assay was stopped using 5X protein denaturing buffer (LDS) solution (5 µL). To further denature the protein, heat (70° C) was applied […]
electrophoresis (at 200 V). 10 µL of each reaction was loaded into the precast plates and electrophoresis was allowed to proceed. After completion of electrophoresis, the front part of the precast gel plate (holding hot ATP) was cut and afterwards cast -off.
The dried gel was developed using a phosphor screen. […]
Computerized Prism 5 program was used to statistically analyzed data using one-way ANOVA test followed by Tukey’s as post ANOVA for multiple comparison at P ≤.05.
Data were presented as mean ± SEM.

[7] = test system: LOX-IMVI melanoma cell line; assay: LOX-IMVI melanoma cell line cytotoxicity assay (MTT); type: cell-based; settings: Homo sapiens, 5-dose concentrations, read-out: LOX-IMVI Melanoma IC50 ± SEM
Protocol: The IC50 values of the test compounds were determined at 5-dose concentrations, with staurosporine serving as a control.
The anticancer activity of the synthesized derivatives was determined using the MTT cytotoxicity assay on LOX-IMVI melanoma cell line. See Appendix SA (Supplementary Materials).

[8] = test system: four human cancer cell lines (Panc-1, MCF-7, HT-29, A-549); assay: Antiproliferative assay, average (GI50) versus the four cancer cell lines; type: cell-based; settings: Homo sapiens; average versus the four cancer cell lines
Protocol: as §1, §2, §3, §4, §5, §6, §7, §8, §9, §10

[9] = test system: A-549 (epithelial cancer cell line); assay: Antiproliferative assay, A-549; type: cell-based; settings: Homo sapiens, A549; read-out: Antiproliferative Activity IC50 ± SEM A-549
Protocol: as §1, §2, §3, §4, §5, §6, §7, §8, §9, §10

[10] = test system: MCF-7 (breast cancer cell line); assay: Antiproliferative assay, MCF-7; type: cell-based; settings: Homo sapiens, MCF7; read-out: Antiproliferative Activity IC50 ± SEM MCF-7
Protocol: as §1, §2, §3, §4, §5, §6, §7, §8, §9, §10

EGFR^T790M [11] = target: T1, EGFR^T790M; settings: cited from earlier work
c-MET = test system: c-MET; design: method as in PMID 29758406; settings: cited from earlier work
EGFR^L858R = test system: EGFR^L858R; design: method as in PMID 29758406; settings: cited from earlier work
BRAF^V600E [12] = settings: cited from earlier work
EGFR [13] = target: T2, EGFR; design: CD, amino acids 645–1186); His6 (N); made in house; host or cells: Sf-9 insect cells (baculovirus; pBlueBacHis2B / pFASTBacHTc; settings: cited from earlier work
four cancer cell lines = test system: four cancer cell lines; design: method as in PMID 32920363; settings: read-out: GI50 against four cancer cell lines; cited from earlier work

T2 sequence (P00533 669-1210): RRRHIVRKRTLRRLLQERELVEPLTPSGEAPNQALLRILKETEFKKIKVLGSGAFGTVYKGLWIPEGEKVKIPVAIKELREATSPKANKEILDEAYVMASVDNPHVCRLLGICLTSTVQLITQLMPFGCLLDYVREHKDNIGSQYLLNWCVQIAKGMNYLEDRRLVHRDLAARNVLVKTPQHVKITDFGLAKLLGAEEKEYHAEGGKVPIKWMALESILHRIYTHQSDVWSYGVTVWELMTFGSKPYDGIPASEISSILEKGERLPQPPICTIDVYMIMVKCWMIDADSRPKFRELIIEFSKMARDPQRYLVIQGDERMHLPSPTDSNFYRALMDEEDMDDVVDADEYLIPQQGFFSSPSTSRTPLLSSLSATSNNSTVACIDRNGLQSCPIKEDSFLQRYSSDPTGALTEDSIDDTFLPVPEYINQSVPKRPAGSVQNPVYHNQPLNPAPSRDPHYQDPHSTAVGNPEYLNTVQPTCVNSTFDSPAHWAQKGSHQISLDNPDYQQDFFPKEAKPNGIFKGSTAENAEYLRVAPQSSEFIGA
T1 sequence (P00533 25-1210 T790M): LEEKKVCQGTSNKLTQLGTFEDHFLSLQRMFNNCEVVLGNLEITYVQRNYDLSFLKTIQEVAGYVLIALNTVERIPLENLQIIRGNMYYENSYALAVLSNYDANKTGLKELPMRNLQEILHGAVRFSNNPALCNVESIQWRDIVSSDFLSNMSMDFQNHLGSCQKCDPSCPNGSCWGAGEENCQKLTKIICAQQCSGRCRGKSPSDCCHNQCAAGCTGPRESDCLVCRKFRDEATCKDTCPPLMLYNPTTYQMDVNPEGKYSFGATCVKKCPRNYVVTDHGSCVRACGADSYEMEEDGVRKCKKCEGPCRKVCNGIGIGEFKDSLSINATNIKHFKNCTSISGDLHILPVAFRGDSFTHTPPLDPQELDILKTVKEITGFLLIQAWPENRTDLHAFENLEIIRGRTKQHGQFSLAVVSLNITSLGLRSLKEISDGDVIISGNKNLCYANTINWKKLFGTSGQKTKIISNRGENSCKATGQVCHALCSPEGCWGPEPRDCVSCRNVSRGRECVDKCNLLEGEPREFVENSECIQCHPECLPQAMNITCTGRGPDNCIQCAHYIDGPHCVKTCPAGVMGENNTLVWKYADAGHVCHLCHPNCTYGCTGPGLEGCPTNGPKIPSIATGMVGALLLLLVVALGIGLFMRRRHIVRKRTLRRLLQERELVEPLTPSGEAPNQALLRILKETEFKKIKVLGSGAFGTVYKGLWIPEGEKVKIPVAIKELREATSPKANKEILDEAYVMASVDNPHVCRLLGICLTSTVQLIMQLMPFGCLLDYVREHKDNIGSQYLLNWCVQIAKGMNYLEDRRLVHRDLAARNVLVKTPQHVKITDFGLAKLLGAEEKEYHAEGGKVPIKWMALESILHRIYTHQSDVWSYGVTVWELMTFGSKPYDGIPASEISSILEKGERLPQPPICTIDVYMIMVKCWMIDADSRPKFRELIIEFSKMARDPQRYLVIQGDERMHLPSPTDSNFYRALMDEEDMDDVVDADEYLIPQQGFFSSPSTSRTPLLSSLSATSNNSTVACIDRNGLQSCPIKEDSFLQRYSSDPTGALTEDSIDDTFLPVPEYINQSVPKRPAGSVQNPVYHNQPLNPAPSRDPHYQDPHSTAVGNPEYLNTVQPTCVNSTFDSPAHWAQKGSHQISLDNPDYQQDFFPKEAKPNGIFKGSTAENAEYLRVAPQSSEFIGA
T3 sequence (P28028 whole entry V585E): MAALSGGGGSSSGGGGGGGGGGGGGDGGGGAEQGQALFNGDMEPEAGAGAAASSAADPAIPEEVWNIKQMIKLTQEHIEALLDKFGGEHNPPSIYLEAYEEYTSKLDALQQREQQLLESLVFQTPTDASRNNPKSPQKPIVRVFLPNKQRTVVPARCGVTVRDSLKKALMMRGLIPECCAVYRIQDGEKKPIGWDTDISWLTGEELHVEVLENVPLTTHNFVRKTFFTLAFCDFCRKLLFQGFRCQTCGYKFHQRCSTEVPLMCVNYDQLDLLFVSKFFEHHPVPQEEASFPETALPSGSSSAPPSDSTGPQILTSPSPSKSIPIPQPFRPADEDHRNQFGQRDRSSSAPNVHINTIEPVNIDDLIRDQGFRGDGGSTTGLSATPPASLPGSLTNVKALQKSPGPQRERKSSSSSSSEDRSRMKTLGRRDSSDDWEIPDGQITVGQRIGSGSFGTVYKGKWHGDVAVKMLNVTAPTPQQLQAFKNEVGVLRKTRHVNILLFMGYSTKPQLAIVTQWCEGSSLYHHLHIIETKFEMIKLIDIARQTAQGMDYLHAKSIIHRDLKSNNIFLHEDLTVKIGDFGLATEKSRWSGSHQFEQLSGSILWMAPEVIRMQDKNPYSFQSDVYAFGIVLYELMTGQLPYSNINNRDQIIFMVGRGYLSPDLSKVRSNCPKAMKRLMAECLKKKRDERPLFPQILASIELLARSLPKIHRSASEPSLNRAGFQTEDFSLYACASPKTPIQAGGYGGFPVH

Which results are given for `CCOC(=O)c1[nH]c2ccc(Cl)cc2c1CNCCc1cccc(N2CCCCC2)c1` [Compound 3e, Ethyl 5-chloro-3-((3-(piperidin-1-yl)phenethylamino)methyl)-1H-indole-2-carboxylate]?
IC50 [1]: 30 ± 3 nM; viability at 96 h, 50 µM [2]: 92%; selectivity index toward EGFR^T790M protein over wild-type EGFR (EGFR^T790M [3]): 8 fold; IC50 (EGFR^T790M [3]): 8.6 ± 2 nM; IC50 [4]: 29 ± 3 nM; IC50 (EGFR [5]): 68 ± 5 nM; fold more potent than erlotinib (EGFR IC50) (EGFR [5]; relative to erlotinib IC50 = 80 nM): 1.2 fold; IC50 (BRAF^V600E [6]): 35 ± 3 nM; IC50 [7]: 960 ± 10 nM; GI50 [8]: 29 nM; IC50 [9]: 27 ± 2 nM; IC50 [10]: 30 ± 3 nM

Which IC50 [1] does the source give for `CCOC(=O)c1[nH]c2ccc(Cl)cc2c1CNCCc1ccc(N2CCCC2)cc1` [Compound 3b, Ethyl 5-chloro-3-((4-(pyrrolidin-1-yl)phenethylamino)methyl)-1H-indole-2-carboxylate] here?
The IC50 was 32 ± 3 nM.

And the viability at 96 h, 50 µM [2]?
The viability at 96 h, 50 µM was 91%.

What about the “selectivity index toward EGFR^T790M protein over wild-type EGFR” value (EGFR^T790M [3]) of the same molecule?
The value was 8 fold.

And the IC50 (EGFR^T790M [3])?
Its IC50 is 9.2 ± 2 nM.

And the IC50 [4]?
The IC50 was 30 ± 3 nM.

What about the IC50 (EGFR [5]) of the same molecule?
Its IC50 is 74 ± 5 nM.

What about the IC50 (BRAF^V600E [6]) of the same molecule?
Its IC50 is 39 ± 3 nM.

What about the IC50 [7] of the same molecule?
The IC50 was 1120 ± 10 nM.

And the GI50 [8]?
The GI50 was 31 nM.

What about the IC50 [9] of the same molecule?
Its IC50 is 30 ± 3 nM.

And the IC50 [10]?
The IC50 was 32 ± 3 nM.

Which IC50 (EGFR^T790M [11]) does the source give for `CCc1ccc(Cn2cc(-c3cc(-c4ccc(Br)cc4)nc(N)n3)c3ccccc32)cc1` [Compound II] here?
Its IC50 is 94 nM.

And the IC50 (c-MET)?
Its IC50 is 595 nM.

And the IC50 (EGFR^L858R)?
Its IC50 is 99 nM.

What does the source list for `Cc1c2n(c3ccc(Cl)cc13)C(=O)CN(CCc1ccc(N3CCOCC3)cc1)C2=O` [Compound VI]?
IC50 (BRAF^V600E [12]): 150 nM; IC50 (EGFR [13]): 80 nM; GI50 (four cancer cell lines): 1110 nM
